Each structure is given as a SMILES string. Where only a bound is given, the exact number is not on record here.

The IC50 is the concentration needed to halve the response being measured. Read a low IC50 as greater potency in that assay.

The test system of the assay is KRAS G12V dependent lung adenocarcinoma cell line, NCI-H441. Kind of assay: Cellular pERK (Thr202/Tyr204) FRET/HTRF assay. The assay is classed as cell-based. Conditions: Homo sapiens, NCI-H441, cellular pERK (Thr202/Tyr204) HTRF, NCI-H441 cells. The gist of the method:
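Read-out is a wash-free FRET sandwich immunoassay for endogenous ERK1/2 phosphorylated on Thr202/Tyr204. Signal was measured in NCI-H441 lung adenocarcinoma cells after 1 hr compound exposure at 37 °C. IC50 values come from fitted concentration-response curves.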
On the technique in general: Time-resolved FRET reads energy transfer from a long-lived donor to a nearby acceptor.
As for `C#Cc1c(F)ccc2cc(N)cc(-c3ncc4c(N5CCOC[C@H]6[C@H](F)[C@H]65)nc(OC[C@@]56CCCN5C[C@H](C)C6)nc4c3F)c12` (single isomer, unassigned) [Example 208], the IC50 was less than 0.05 µM. To `C#Cc1c(F)ccc2cc(N)cc(-c3ncc4c(N5CCOC[C@H]6[C@H](F)[C@H]65)nc(OC[C@@]56CCCN5C[C@@H](C)C6)nc4c3F)c12` (single isomer, unassigned) [Example 209] belongs less than 0.05 µM; to `C#Cc1c(F)ccc2cc(N)cc(-c3ncc4c(N5CCOC[C@H]6[C@H](F)[C@H]65)nc(OC[C@@]56CCCN5C[C@]5(CC5(F)F)C6)nc4c3F)c12` (single isomer, unassigned) [Example 210], less than 0.05 µM; to `C#Cc1c(F)ccc2cc(N)cc(-c3ncc4c(N5CCOC[C@H]6[C@H](F)[C@H]65)nc(OC[C@@]56CCCN5C[C@@]5(CC5(F)F)C6)nc4c3F)c12` (single isomer, unassigned) [Example 211], less than 0.05 µM.

`[2H]C([2H])(F)Oc1c(F)ccc2cc(N)cc(-c3ncc4c(N5CCOC[C@H]6[C@H](F)[C@H]65)nc(OC[C@@]56CCCN5C[C@@H](C)C6)nc4c3F)c12` (single isomer, unassigned) [Example 214] registered a 50% inhibitory concentration (IC50) of less than 0.05 µM. As for `[2H]C([2H])(F)Oc1c(F)ccc2cc(N)cc(-c3ncc4c(N5CCOC[C@H]6[C@H](F)[C@H]65)nc(OC[C@@]56CCCN5C[C@H](C)C6)nc4c3F)c12` (single isomer, unassigned) [Example 215], the IC50 is less than 0.05 µM. The value for `C#Cc1c(F)ccc2cc(N)cc(-c3ncc4c(N5CCOC[C@H]6[C@H](F)[C@H]65)nc(OC[C@]56C[C@@]7(CN5CCC65CC5)CC7(F)F)nc4c3F)c12` (single isomer, unassigned) [Example 218] was less than 0.05 µM; that for `C#Cc1c(F)ccc2cc(N)cc(-c3ncc4c(N5CCOC[C@H]6[C@H](F)[C@H]65)nc(OC[C@]56C[C@]7(CN5CCC65CC5)CC7(F)F)nc4c3F)c12` (single isomer, unassigned) [Example 219] was less than 0.05 µM. For `[2H]C([2H])(F)Oc1c(F)ccc2cc(N)cc(-c3ncc4c(N5CCOC[C@H]6[C@H](F)[C@H]65)nc(OC[C@@]56CCCN5C[C@@]5(CC5(F)F)C6)nc4c3F)c12` (single isomer, unassigned) [Example 229], the IC50 was less than 0.05 µM. The value for `[2H]C([2H])(F)Oc1c(F)ccc2cc(N)cc(-c3ncc4c(N5CCOC[C@H]6[C@H](F)[C@H]65)nc(OC[C@@]56CCCN5C[C@]5(CC5(F)F)C6)nc4c3F)c12` (single isomer, unassigned) [Example 230] was less than 0.05 µM. The molecule `C#Cc1c(F)ccc2cc(N)cc(-c3ncc4c(N5CCOC[C@H]6[C@H](F)[C@H]65)nc(OC[C@]56C[C@]7(C[C@H]7F)CN5CCC65CC5)nc4c3F)c12` (single isomer, unassigned) [Example 231] registered an IC50 of less than 0.05 µM. To `C#Cc1c(F)ccc2cc(N)cc(-c3ncc4c(N5CCOC[C@H]6[C@H](F)[C@H]65)nc(OC[C@]56C[C@]7(C[C@@H]7F)CN5CCC65CC5)nc4c3F)c12` (single isomer, unassigned) [Example 232] belongs less than 0.05 µM; to `C#Cc1c(F)ccc2cc(N)cc(-c3ncc4c(N5CCOC[C@H]6[C@H](F)[C@H]65)nc(OC[C@]56C[C@@]7(C[C@H]7F)CN5CCC65CC5)nc4c3F)c12` (single isomer, unassigned) [Example 233], less than 0.05 µM; to `C#Cc1c(F)ccc2cc(N)cc(-c3ncc4c(N5CCOC[C@H]6[C@H](F)[C@H]65)nc(OC[C@]56C[C@@]7(C[C@@H]7F)CN5CCC65CC5)nc4c3F)c12` (single isomer, unassigned) [Example 234], less than 0.05 µM.

Molecule `[2H]C([2H])(Oc1nc(N2CCOC[C@H]3[C@H](F)[C@H]32)c2cnc(-c3cc(N)cc4ccc(F)c(C#C)c34)c(F)c2n1)[C@@]12CCCN1C[C@@H](Cl)C2` (single isomer, unassigned) [Example 237] returned an IC50 of less than 0.05 µM.

In turn, `[2H]C([2H])(Oc1nc(N2CCOC[C@H]3[C@H](F)[C@H]32)c2cnc(-c3cc(N)cc4ccc(F)c(C#C)c34)c(F)c2n1)[C@@]12CCCN1C[C@H](Cl)C2` (single isomer, unassigned) [Example 238] came in with an IC50 of less than 0.05 µM. To `C#Cc1c(F)ccc2cc(N)cc(-c3ncc4c(N5CCOC[C@H]6[C@H](F)[C@H]65)nc(OC[C@]56C[C@@H](C)CN5CCC65CC5)nc4c3F)c12` (single isomer, unassigned) [Example 242] belongs less than 0.05 µM; to `C#Cc1c(F)ccc2cc(N)cc(-c3ncc4c(N5CCOC[C@H]6[C@H](F)[C@H]65)nc(OC[C@@]56C[C@H](C)CN5CCC65CC5)nc4c3F)c12` (single isomer, unassigned) [Example 243], less than 0.05 µM; to `C#Cc1c(F)ccc2cc(N)cc(-c3ncc4c(N5CCOC[C@H]6[C@H](F)[C@H]65)nc(OC[C@]56C[C@H](C)CN5CCC65CC5)nc4c3F)c12` (single isomer, unassigned) [Example 251], less than 0.05 µM. The molecule `C#Cc1c(F)ccc2cc(N)cc(-c3ncc4c(N5CCOC[C@H]6[C@H](F)[C@H]65)nc(OC[C@@]56CCCN5C[C@@]5(C[C@@H]5F)C6)nc4c3F)c12` (single isomer, unassigned) [Example 252] displayed an IC50 of less than 0.05 µM.

`C#Cc1c(F)ccc2cc(N)cc(-c3ncc4c(N5CCOC[C@H]6[C@H](F)[C@H]65)nc(OC[C@@]56CCCN5C[C@@]5(C[C@H]5F)C6)nc4c3F)c12` (single isomer, unassigned) [Example 253] yielded a half-inhibitory concentration (IC50) of less than 0.05 µM.

Regarding `C#Cc1c(F)ccc2cc(N)cc(-c3ncc4c(N5CCOC[C@H]6[C@H](F)[C@H]65)nc(OC[C@@]56CCCN5C[C@]5(C[C@H]5F)C6)nc4c3F)c12` (single isomer, unassigned) [Example 254], the IC50 was less than 0.05 µM. To `C#Cc1c(F)ccc2cc(N)cc(-c3ncc4c(N5CCOC[C@H]6[C@H](F)[C@H]65)nc(OC[C@@]56CCCN5C[C@]5(C[C@@H]5F)C6)nc4c3F)c12` (single isomer, unassigned) [Example 255] belongs less than 0.05 µM. Regarding `[2H]C([2H])(Oc1nc(N2CCOC[C@H]3[C@H](F)[C@H]32)c2cnc(-c3cc(N)cc4ccc(F)c(C#C)c34)c(F)c2n1)[C@@]12CCCN1C[C@@H](CF)C2` (single isomer, unassigned) [Example 265], the IC50 is less than 0.05 µM. The value for `[2H]C([2H])(Oc1nc(N2CCOC[C@H]3[C@H](F)[C@H]32)c2cnc(-c3cc(N)cc4ccc(F)c(C#C)c34)c(F)c2n1)[C@@]12CCCN1C[C@H](CF)C2` (single isomer, unassigned) [Example 266] was less than 0.05 µM; that for `[2H]C1([2H])CC[C@@]2(C([2H])([2H])Oc3nc(N4CCOC[C@H]5[C@H](F)[C@H]54)c4cnc(-c5cc(N)cc6ccc(F)c(C#C)c56)c(F)c4n3)C[C@@]3(C[C@H]3F)CN12` (single isomer, unassigned) [Example 274] was less than 0.05 µM. For `[2H]C1([2H])CC[C@@]2(C([2H])([2H])Oc3nc(N4CCOC[C@H]5[C@H](F)[C@H]54)c4cnc(-c5cc(N)cc6ccc(F)c(C#C)c56)c(F)c4n3)C[C@@]3(C[C@@H]3F)CN12` (single isomer, unassigned) [Example 275], the IC50 is less than 0.05 µM. `[2H]C([2H])(Oc1nc(N2CCOC[C@H]3[C@H](F)[C@H]32)c2cnc(-c3cc(N)cc4ccc(F)c(C#C)c34)c(F)c2n1)[C@@]12CCCN1C[C@]1(C[C@H]1F)C2` (single isomer, unassigned) [Example 312] yielded an IC50 of less than 0.05 µM.

In turn, `[2H]C([2H])(Oc1nc(N2CCOC[C@H]3[C@H](F)[C@H]32)c2cnc(-c3cc(N)cc4ccc(F)c(C#C)c34)c(F)c2n1)[C@@]12CCCN1C[C@]1(C[C@@H]1F)C2` (single isomer, unassigned) [Example 313] showed an IC50 of less than 0.05 µM.

Molecule `[2H]C([2H])(Oc1nc(N2CCOC[C@H]3[C@H](F)[C@H]32)c2cnc(-c3cc(N)cc4ccc(F)c(C#C)c34)c(F)c2n1)[C@@]12CCCN1C[C@@H](CC#N)C2` (single isomer, unassigned) [Example 314] returned an IC50 of less than 0.05 µM. To `[2H]C([2H])(Oc1nc(N2CCOC[C@H]3[C@H](F)[C@H]32)c2cnc(-c3cc(N)cc4ccc(F)c(C#C)c34)c(F)c2n1)[C@@]12CCCN1C[C@H](CC#N)C2` (single isomer, unassigned) [Example 315] belongs less than 0.05 µM; to `[2H]C([2H])(Oc1nc(N2CCOC[C@@H]3C(F)[C@@H]32)c2cc(F)c(-c3cc(N)cc(C)c3C(F)(F)F)c(F)c2n1)[C@@]12CCCN1C[C@H](F)C2` (stereo in doubt) [Example 170, 3-(6,8-difluoro-4-((1R,7R,8R)-8-fluoro-5-oxa-2-azabicyclo[5.1.0]octan-2-yl)-2-(((2R,7aS)-2-fluorotetrahydro-1H-pyrrolizin-7a(5H)-yl)methoxy-d2)quinazolin-7-yl)-5-methyl-4-(trifluoromethyl)aniline], 0.5 to 10 µM.

`[2H]C([2H])(Oc1nc(N2CC[C@H](C#N)C[C@@H]3[C@H](F)[C@@H]32)c2cnc(-c3cc(N)cc4ccc(F)c(C#C)c34)c(F)c2n1)[C@@]12CCCN1C[C@H](F)C2` (stereo in doubt) [Example 309, (1R,SR,7S,8S)-2-(7-(3-amino-8-ethynyl-7-fluoronaphthalen-1-yl)-8-fluoro-2-(((2R,7aS)-2-fluorotetrahydro-1H-pyrrolizin-7a(5H)-yl)methoxy-d2)pyrido[4,3-d]pyrimidin-4-yl)-8-fluoro-2-azabicyclo[5.1.0]octane-5-carbonitrile] came in with an IC50 of 0.05 to 0.5 µM.

The values are drawn from patent publication US20250282799A1, “SUBSTITUTED PYRIDO[4,3-d]PYRIMIDINES AS KRAS MODULATORS” (Alterome Therapeutics, Inc., priority 2023, published 2025).
